According to ChEMBL document CHEMBL1208782, “Synthesis and pharmacological validation of a novel series of non-steroidal FXR agonists” (Bioorg Med Chem Lett, 2010):

Key:
Bile acid receptor = molecular target: T1, Bile acid receptor (Homo sapiens, UniProt Q96RI1); assay: Agonist activity at human GST-fused FXR LBD assessed as cofactor peptide interaction with receptor ligand binding domain by FRET assay
T1 sequence (Q96RI1 whole entry): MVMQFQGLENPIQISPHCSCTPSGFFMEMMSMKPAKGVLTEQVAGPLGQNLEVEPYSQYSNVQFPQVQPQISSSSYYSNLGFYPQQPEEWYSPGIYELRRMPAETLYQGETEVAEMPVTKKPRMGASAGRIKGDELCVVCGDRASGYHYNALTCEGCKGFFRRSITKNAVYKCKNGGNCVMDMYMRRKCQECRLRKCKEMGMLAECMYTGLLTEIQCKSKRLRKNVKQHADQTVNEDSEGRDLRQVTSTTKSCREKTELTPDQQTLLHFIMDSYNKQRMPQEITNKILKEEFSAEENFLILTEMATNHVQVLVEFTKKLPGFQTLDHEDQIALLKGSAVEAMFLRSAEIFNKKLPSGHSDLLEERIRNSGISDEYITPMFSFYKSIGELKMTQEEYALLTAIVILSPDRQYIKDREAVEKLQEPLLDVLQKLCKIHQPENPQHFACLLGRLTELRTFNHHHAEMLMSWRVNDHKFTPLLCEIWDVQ

[1] = molecular target: T2, Bile acid receptor (Homo sapiens) (UniProt Q96RI1); assay: Agonist activity at human full length FXR transfected in HEK293 cells coexpressing pTRexDest/pGL2promotor assessed as luciferase activity by direct reporter cellular assay relative to GW-4064; format: functional, cell-based
T2 sequence (whole entry): T1 sequence (Q96RI1 whole entry)

[2] = molecular target: T3, PXR (nuclear receptor subfamily 1 group I member 2) (Homo sapiens, UniProt O75469); assay: Agonist activity at PXR-LBD expressed in HEK293 cells assessed as Gal4-DBD interaction by cellular mammalian one hybrid assay relative to SR-12813; format: functional, cell-based; conditions: HEK293 cells expressing PXR-LBD, read-out: Efficacy
T3 sequence (O75469 whole entry): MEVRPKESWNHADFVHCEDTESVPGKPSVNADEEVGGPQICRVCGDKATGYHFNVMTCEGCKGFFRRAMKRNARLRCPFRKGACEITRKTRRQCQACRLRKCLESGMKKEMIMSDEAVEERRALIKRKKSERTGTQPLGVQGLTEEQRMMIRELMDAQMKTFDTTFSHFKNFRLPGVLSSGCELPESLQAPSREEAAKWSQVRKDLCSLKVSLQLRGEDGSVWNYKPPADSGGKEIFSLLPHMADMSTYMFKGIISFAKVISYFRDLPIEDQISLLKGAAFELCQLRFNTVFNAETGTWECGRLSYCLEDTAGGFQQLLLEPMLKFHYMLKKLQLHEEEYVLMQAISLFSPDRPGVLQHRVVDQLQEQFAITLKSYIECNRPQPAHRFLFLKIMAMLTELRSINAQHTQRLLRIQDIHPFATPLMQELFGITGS

[3] = molecular target: T4, Nuclear receptor subfamily 1 group I member 3 (Homo sapiens, UniProt Q14994); assay: Agonist activity at CAR-LBD expressed in HEK293 cells assessed as Gal4-DBD interaction by cellular mammalian one hybrid assay; format: functional, cell-based
T4 sequence (Q14994 whole entry): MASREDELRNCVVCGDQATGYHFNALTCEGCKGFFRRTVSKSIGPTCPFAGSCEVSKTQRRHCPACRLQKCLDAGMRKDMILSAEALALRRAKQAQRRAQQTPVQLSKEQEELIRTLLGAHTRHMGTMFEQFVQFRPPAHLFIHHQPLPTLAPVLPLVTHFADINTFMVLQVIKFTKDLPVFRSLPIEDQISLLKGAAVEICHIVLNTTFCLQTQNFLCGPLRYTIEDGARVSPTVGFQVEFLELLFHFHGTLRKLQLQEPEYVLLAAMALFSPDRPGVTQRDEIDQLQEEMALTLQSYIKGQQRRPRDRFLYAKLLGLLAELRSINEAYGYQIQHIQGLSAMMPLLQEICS

Progesterone receptor = molecular target: T5, Progesterone receptor (Homo sapiens, UniProt P06401); assay: Agonist activity at progesterone receptor-LBD expressed in HEK293 cells assessed as Gal4-DBD interaction by cellular mammalian one hybrid assay; format: functional, cell-based
T5 sequence (P06401 whole entry): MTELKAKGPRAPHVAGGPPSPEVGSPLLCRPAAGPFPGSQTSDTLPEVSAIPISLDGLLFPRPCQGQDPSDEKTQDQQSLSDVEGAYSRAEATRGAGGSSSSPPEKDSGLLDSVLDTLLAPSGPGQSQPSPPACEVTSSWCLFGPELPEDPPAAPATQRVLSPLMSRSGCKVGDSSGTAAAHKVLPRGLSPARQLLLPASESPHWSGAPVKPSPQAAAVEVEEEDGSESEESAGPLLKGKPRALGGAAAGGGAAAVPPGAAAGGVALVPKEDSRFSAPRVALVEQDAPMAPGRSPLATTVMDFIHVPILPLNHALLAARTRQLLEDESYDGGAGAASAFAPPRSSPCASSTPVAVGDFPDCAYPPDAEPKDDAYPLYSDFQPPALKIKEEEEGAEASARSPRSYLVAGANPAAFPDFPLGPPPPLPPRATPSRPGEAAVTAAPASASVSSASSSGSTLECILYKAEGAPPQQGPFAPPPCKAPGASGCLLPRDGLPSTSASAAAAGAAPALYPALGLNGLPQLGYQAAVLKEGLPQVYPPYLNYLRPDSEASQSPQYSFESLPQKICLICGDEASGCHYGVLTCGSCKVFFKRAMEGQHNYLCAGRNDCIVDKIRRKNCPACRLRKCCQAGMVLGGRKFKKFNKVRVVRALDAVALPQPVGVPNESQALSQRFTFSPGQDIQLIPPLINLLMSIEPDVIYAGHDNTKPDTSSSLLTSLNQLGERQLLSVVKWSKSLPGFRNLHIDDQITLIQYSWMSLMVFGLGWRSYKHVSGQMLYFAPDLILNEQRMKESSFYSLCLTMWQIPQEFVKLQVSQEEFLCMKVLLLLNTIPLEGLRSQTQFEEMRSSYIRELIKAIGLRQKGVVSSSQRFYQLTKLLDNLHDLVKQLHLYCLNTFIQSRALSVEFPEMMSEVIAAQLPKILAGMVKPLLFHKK

Compound | EC50 (Bile acid receptor) | Efficacy [1] | Emax [2] | EC50 [3] | EC50 (Progesterone receptor)
CN(Cc1cccc(C(=O)O)c1)c1ccc(OCc2c(-c3c(Cl)cccc3Cl)noc2C2CC2)nc1C(F)(F)F | 0.003 µM | 43% | 62% | > 10 µM | > 10 µM
CN(Cc1ccc(C(=O)O)cc1)c1ccc(OCc2c(-c3c(Cl)cccc3Cl)noc2C2CC2)nc1C(F)(F)F | 0.012 µM | 60% | 67% | > 10 µM | > 10 µM
CC(C)c1onc(-c2c(Cl)cccc2Cl)c1COc1ccc(N(C)Cc2ccc(C(=O)O)cc2)c(C(F)(F)F)n1 | 0.022 µM | 57% | 60% | > 10 µM | > 10 µM
